Data from ChEMBL document CHEMBL1201862, “PubChem BioAssay data set” (2004).
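Where inhibition never reached the appropriate level, the endpoint shown equals the highest concentration tested. Otherwise, values were interpolated linearly from a five-concentration, 48-hour dose response in 96-well plates. Abbreviation: GI50, concentration required for 50% inhibition of growth.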 Active and inactive are the calls of the source. No stated cut-off is given here; in the data, active = GI50 up to about 1.1 µM and inactive = higher.

Columns and labels:
Assay in all cases: NCI tumour cell line growth inhibition, 48 h
[1] = test system: DU-145
[2] = test system: A549
[3] = test system: SNB-75
[4] = test system: A498
[5] = test system: Malme-3M
[6] = test system: KM12
[7] = test system: SK-MEL-2
[8] = test system: RPMI-8226
[9] = test system: HOP-62
[10] = test system: SF-268
[11] = test system: UO-31
[12] = test system: OVCAR-5
[13] = test system: COLO 205
[14] = test system: TK-10
[15] = test system: OVCAR-8
[16] = test system: 786-0
[17] = test system: EKVX
[18] = test system: Hs-578T
[19] = test system: NCI-H226
[20] = test system: HT-29

SMILES | GI50 [1] | GI50 [2] | GI50 [3] | GI50 [4] | GI50 [5] | GI50 [6] | GI50 [7] | GI50 [8] | GI50 [9] | GI50 [10] | GI50 [11] | GI50 [12] | GI50 [13] | GI50 [14] | GI50 [15] | GI50 [16] | GI50 [17] | GI50 [18] | GI50 [19] | GI50 [20]
O=C1C(c2c(O)[nH]c3ccccc23)=Nc2ccc(Br)cc21 | 8.11 µM (inactive) | 27.2 µM (inactive) | 14.6 µM (inactive) | 4.39 µM (inactive) | > 100 µM (inactive) | 17.1 µM (inactive) | 29.8 µM (inactive) | 75.7 µM (inactive) | 21.3 µM (inactive) | 25.4 µM (inactive) | 24.6 µM (inactive) | 49.3 µM (inactive) | > 100 µM (inactive) | 23 µM (inactive) | 15.1 µM (inactive) | 9.62 µM (inactive) | 15.1 µM (inactive) | 19.5 µM (inactive) | 18.5 µM (inactive) | 23.9 µM (inactive)
CCC(/C=C/c1ccccc1)=N\NC(=S)N/N=C(/C=C/c1ccccc1)CC | 26.1 µM (inactive) | 17.2 µM (inactive) | > 100 µM (inactive) | 20.8 µM (inactive) | 90.8 µM (inactive) | 31.8 µM (inactive) |  | 35.5 µM (inactive) | > 100 µM (inactive) | 12.8 µM (inactive) | 13 µM (inactive) |  | 30.8 µM (inactive) | > 100 µM (inactive) | 20.4 µM (inactive) | 48 µM (inactive) | > 100 µM (inactive) | > 100 µM (inactive) | 32.2 µM (inactive) | 55.1 µM (inactive)
Cc1cc([C@H](C#N)c2nc3ccccc3[nH]2)nc(Cl)n1 | 30.6 µM (inactive) | 33.9 µM (inactive) | 31 µM (inactive) | 41.8 µM (inactive) | 77.3 µM (inactive) | 14.9 µM (inactive) | 26.5 µM (inactive) | 5.65 µM (inactive) |  | > 100 µM (inactive) | 35.6 µM (inactive) |  | 42.1 µM (inactive) | 61.1 µM (inactive) | 30.4 µM (inactive) | 54.5 µM (inactive) | 62.2 µM (inactive) | > 100 µM (inactive) | 48 µM (inactive) | 41.7 µM (inactive)
Cn1c(=O)c2c(nc3n(CCCCl)c(=O)ccn23)n(C)c1=O | > 100 µM (inactive) | > 100 µM (inactive) | > 100 µM (inactive) | > 100 µM (inactive) |  | > 100 µM (inactive) | > 100 µM (inactive) | > 100 µM (inactive) | > 100 µM (inactive) | > 100 µM (inactive) | > 100 µM (inactive) | > 100 µM (inactive) | > 100 µM (inactive) | > 100 µM (inactive) | > 100 µM (inactive) | > 100 µM (inactive) | > 100 µM (inactive) | > 100 µM (inactive) | > 100 µM (inactive) | > 100 µM (inactive)
OC(C1CCC=NN1C(O)(C(F)(F)F)C(F)(F)F)(C(F)(F)F)C(F)(F)F (stereo unspecified) | > 10 µM (inactive) | > 10 µM (inactive) | > 10 µM (inactive) | > 10 µM (inactive) | > 10 µM (inactive) | > 10 µM (inactive) | > 10 µM (inactive) | > 10 µM (inactive) | > 10 µM (inactive) | > 10 µM (inactive) |  | > 10 µM (inactive) | > 10 µM (inactive) | > 10 µM (inactive) | > 10 µM (inactive) | > 10 µM (inactive) | > 10 µM (inactive) | > 10 µM (inactive) | > 10 µM (inactive) | > 10 µM (inactive)
CCOC(=O)/C=C1\c2ccccc2C(=O)N1CC(=O)OCC | > 100 µM (inactive) | > 100 µM (inactive) | 77.1 µM (inactive) | > 100 µM (inactive) | > 100 µM (inactive) | > 100 µM (inactive) | > 100 µM (inactive) | > 100 µM (inactive) | > 100 µM (inactive) | > 100 µM (inactive) | > 100 µM (inactive) | > 100 µM (inactive) | > 100 µM (inactive) | > 100 µM (inactive) | > 100 µM (inactive) | > 100 µM (inactive) | > 100 µM (inactive) | > 100 µM (inactive) | > 100 µM (inactive) | 
Cc1ccc(N2C(=O)C(=O)N(/N=C3\C(=O)Nc4ccccc43)C2=S)cc1 | > 100 µM (inactive) | > 100 µM (inactive) | > 100 µM (inactive) | > 100 µM (inactive) | > 100 µM (inactive) | 65.8 µM (inactive) | 30.3 µM (inactive) | 40.6 µM (inactive) | > 100 µM (inactive) | 58.5 µM (inactive) | > 100 µM (inactive) | > 100 µM (inactive) | 42 µM (inactive) | > 100 µM (inactive) | 59.3 µM (inactive) | 46.6 µM (inactive) | > 100 µM (inactive) | > 100 µM (inactive) |  | 58.6 µM (inactive)
Cc1n[nH]c(=S)n1/N=C/c1ccc(-c2ccc(Cl)cc2)o1 | > 100 µM (inactive) | > 100 µM (inactive) | 31.9 µM (inactive) | > 100 µM (inactive) |  | > 100 µM (inactive) | 29.8 µM (inactive) | > 100 µM (inactive) | 49.7 µM (inactive) | 29.2 µM (inactive) | > 100 µM (inactive) | > 100 µM (inactive) |  | 83.4 µM (inactive) | 93.1 µM (inactive) | > 100 µM (inactive) | 61.9 µM (inactive) | 37.5 µM (inactive) | > 100 µM (inactive) | > 100 µM (inactive)
CC(=O)OCc1cc2c(s1)C(=O)c1sccc1C2=O | 0.0336 µM (active) | 0.181 µM (active) | 0.057 µM (active) | 1.82 µM (inactive) | 0.272 µM (active) | 0.234 µM (active) | 0.0935 µM (active) | 0.239 µM (active) |  | 0.154 µM (active) | 0.178 µM (active) | 0.19 µM (active) | 1.65 µM (inactive) | 1.79 µM (inactive) | 0.183 µM (active) | 0.619 µM (active) | 0.197 µM (active) | 0.157 µM (active) | 0.355 µM (active) | 0.65 µM (active)
Cc1oc2nc(N(C)C)nc(NN)c2c1C | > 100 µM (inactive) | > 100 µM (inactive) | > 100 µM (inactive) | > 100 µM (inactive) |  | > 100 µM (inactive) | > 100 µM (inactive) | > 100 µM (inactive) | > 100 µM (inactive) | > 100 µM (inactive) | 61.7 µM (inactive) | > 100 µM (inactive) | > 100 µM (inactive) | > 100 µM (inactive) | > 100 µM (inactive) | > 100 µM (inactive) | > 100 µM (inactive) | > 100 µM (inactive) | > 100 µM (inactive) | > 100 µM (inactive)
CCOC(=O)c1cc(C2CCN(Cc3ccccc3)C2=O)c(C(=O)/C=C(/C)N)[nH]1 (stereo unspecified) | > 100 µM (inactive) | 73.6 µM (inactive) | > 100 µM (inactive) | > 100 µM (inactive) | > 100 µM (inactive) | > 100 µM (inactive) | > 100 µM (inactive) | > 100 µM (inactive) | 30.5 µM (inactive) | > 100 µM (inactive) | 91.2 µM (inactive) | > 100 µM (inactive) | > 100 µM (inactive) | > 100 µM (inactive) | 65.5 µM (inactive) | 55.6 µM (inactive) | > 100 µM (inactive) | 98.4 µM (inactive) |  | > 100 µM (inactive)
C=CCc1cccc2cc(C(=O)Nc3ccccn3)c(=N)oc12 | > 100 µM (inactive) | > 100 µM (inactive) | > 100 µM (inactive) | > 100 µM (inactive) |  | > 100 µM (inactive) | > 100 µM (inactive) | > 100 µM (inactive) | > 100 µM (inactive) | > 100 µM (inactive) |  | > 100 µM (inactive) | > 100 µM (inactive) |  | > 100 µM (inactive) | 28.7 µM (inactive) |  | > 100 µM (inactive) | > 100 µM (inactive) | > 100 µM (inactive)
O=C1OC(c2ccccc2)=NC1c1ccccc1 (stereo unspecified) | > 100 µM (inactive) | > 100 µM (inactive) | > 100 µM (inactive) | > 100 µM (inactive) |  | > 100 µM (inactive) |  | > 100 µM (inactive) | > 100 µM (inactive) | > 100 µM (inactive) | > 100 µM (inactive) | > 100 µM (inactive) | > 100 µM (inactive) | > 100 µM (inactive) | > 100 µM (inactive) | > 100 µM (inactive) | > 100 µM (inactive) | > 100 µM (inactive) | > 100 µM (inactive) | > 100 µM (inactive)
O=C(CCc1cc(O)cc(O)c1)NCCc1cc(O)cc(O)c1 | > 100 µM (inactive) | > 100 µM (inactive) | > 100 µM (inactive) | > 100 µM (inactive) |  | > 100 µM (inactive) | > 100 µM (inactive) | > 100 µM (inactive) | > 100 µM (inactive) | > 100 µM (inactive) | > 100 µM (inactive) | > 100 µM (inactive) | > 100 µM (inactive) | > 100 µM (inactive) | > 100 µM (inactive) | > 100 µM (inactive) | > 100 µM (inactive) | > 100 µM (inactive) | > 100 µM (inactive) | > 100 µM (inactive)
C/C(=N\NC(=O)c1ccccc1O)c1cccc(/C(C)=N/NC(=O)c2ccccc2O)n1 | 13.3 µM (inactive) | 9.23 µM (inactive) | 12.1 µM (inactive) | 37.8 µM (inactive) | 10.6 µM (inactive) | 6.5 µM (inactive) | 10.2 µM (inactive) | 14.7 µM (inactive) | 5.05 µM (inactive) | 3.41 µM (inactive) |  |  |  | 18.6 µM (inactive) | 2.13 µM (inactive) | 5.32 µM (inactive) | 13.8 µM (inactive) | > 65.2 µM (inactive) |  | 8.61 µM (inactive)
